Reference: paper PMC6274517, “Design, Synthesis and Structure-Activity Relationships of Novel Chalcone-1,2,3-triazole-azole Derivates as Antiproliferative Agents” (Molecules, 2016)
Converted amounts (≈) assume the structure as drawn. Like-named read-outs stand apart in the source and are kept apart here.

How the values were obtained:
SK-N-SH = assay: MTT antiproliferative assay, SK-N-SH; assay type: cell-based, human; settings: 72 h exposure, mean ± SD of three experiments
Protocol: (§1) In totally, a series of novel chalcone-1,2,3-triazole-azole derivatives were successfully synthesized, and their structures characterized by ^1H-NMR, ^13C-NMR, HRMS. Their in vitro antiproliferative activities were then tested, using a MTT assay, against three selected cancer cell lines (SK-N-SH, EC-109 and MGC-803) and compared with the well-known anticancer drug 5-fluorouracil.
(§2) All synthesized compounds were evaluated for their anticancer activity against three cancer cell lines, MGC-803 (human gastric cancer cell line), SK-N-SH (human neuroendocrine cancer cell line), and […] (human esophageal cancer cell line) using MTT assay method and compared with the well-known anticancer drug 5-fluorouracil.

MGC-803 = assay: MTT antiproliferative assay, MGC-803; assay type: cell-based, human; settings: mean ± SD of three experiments
Protocol: as §1, §2

EC-109 = assay: MTT antiproliferative assay, EC-109; assay type: cell-based, human; settings: mean ± SD of three experiments
Protocol: as §1, §2

MCF-7 = settings: cited from earlier work
SMMC-7721 = tested on: SMMC-7721; parameters: method as in PMID 21345546; settings: cited from earlier work
[1] = tested on: SK-N-SH, EC-109 and MGC-803; assay: MTT antiproliferative assay, three cancer cell lines together; assay type: cell-based, human; settings: range across EC-109, SK-N-SH, read-out: IC50 values, range over the three cancer cell lines
Protocol: as §1, §2

[2] = tested on: Bcl-2 and Bax in SK-N-SH cells; assay: Western blot of Bcl-2 and Bax; assay type: cell-based, human; settings: 48 h treatment
Protocol: Antiproliferative agents that induce apoptosis in cancer cells are always preferred in antitumor drug discovery. Bcl-2 associated proteins have both anti-apoptotic and pro-apoptotic effects in vrious cancer cell lines. For the high potent cytotoxic activity against SK-N-SH cell line, compound I-21 was evaluated the level of Bcl-2 (apoptotic inhibitor) and Bax (apoptotic inducer). […] Further mechanism investigations are under way and will be reported in due course.
Figure 6 Expression of Bcl-2 and Bax in SK-N-SH cells after treatment by compound I-21 for 48 h.

GES-1 = assay: Cytotoxicity against normal GES-1 cells; assay type: cell-based, human; settings: for selectivity between cancer and normal cells: MGC-803 versus GES-1; for IC50: normal human gastric epithelial cell line, 72 h exposure, mean ± SD of three experiments
From the text: Compounds I-14 and I-21 were further examined for possible cytotoxicity against GES-1 (normal human gastric epithelial cell line).

SK-N-SH cells = assay: Apoptosis analysis with Hoechst-33258 staining; assay type: cell-based, human; settings: SK-N-SH cells, 5, 10 and 20 μM; 24 h / 48 h (legend of Figure 5)
Protocol: To explore cytotoxicity of I-21 in SK-N-SH cells, cell apoptosis was investigated with Hoechst 33258 staining.
Figure 5 Apoptosis analysis with Hoechst-33258 staining after a 48 h treatment of I-21 in SK-N-SH cell line at 5 μM, 10 μM and 20 μM.

K562 cells = tested on: K562 cells; parameters: method as in PMID 19837593; settings: cited from earlier work
[3] = Homo sapiens, MGC-803, 72 h exposure
[4] = Homo sapiens, ECa-109, 72 h exposure

Row | IC50 (SK-N-SH; Homo sapiens, SK-N-SH) | melting point | IC50 (MGC-803; [3]) | Compound | IC50 (EC-109; [4]) | also measured
1 | 47.3 ± 1.57 µM | 149 to 151 °C | 63.8 ± 1.17 µM | O=C(/C=C/c1cccnc1)c1ccc(OCCCn2cc(CSC3=NCCS3)nn2)cc1 [Compound I-15, (E)-1-(4-(3-(4-(((4,5-Dihydrothiazol-2-yl)thio)methyl)-1H-1,2,3-triazol-1-yl)propoxy)phenyl)-3-(pyridin-3-yl)prop-2-en-1-one] | 42.36 ± 0.18 µM | –
2 | 11.2 ± 0.26 µM | 104 to 106 °C | 8.69 ± 0.42 µM | O=C(/C=C/c1cccs1)c1ccc(OCCCn2cc(CSC3=NCCS3)nn2)cc1 [Compound I-16, (E)-1-(4-(3-(4-(((4,5-Dihydrothiazol-2-yl)thio)methyl)-1H-1,2,3-triazol-1-yl)propoxy)phenyl)-3-(thiophen-2-yl)prop-2-en-1-one] | 19.3 ± 0.79 µM | –
3 | 37.8 ± 0.91 µM | – | 24.4 ± 0.71 µM | O=C(/C=C/c1cccs1)c1ccc(OCCCn2cc(CSc3nc4ccccc4s3)nn2)cc1 [Compound I-19, (E)-1-(4-(3-(4-((Benzo[d]thiazol-2-ylthio)methyl)-1H-1,2,3-triazol-1-yl)propoxy)phenyl)-3-(thiophen-2-yl)prop-2-en-1-one] | 38.8 ± 1.05 µM | –
4 | – | – | – | CN(C)CCN1C(=O)c2cccc3cc(-n4cc(-c5ccccc5)nn4)cc(c23)C1=O [Compound 3] | – | IC50 (MCF-7): 0.348 µM; IC50 (SMMC-7721): 0.258 µM
5 | 29.3 ± 0.85 µM | 129 to 130 °C | 38.1 ± 0.91 µM | Cn1nnnc1SCc1cn(CCCOc2ccc(C(=O)/C=C/c3cccs3)cc2)nn1 [Compound I-27, (E)-1-(4-(3-(4-(((1-Methyl-1H-tetrazol-5-yl)thio)methyl)-1H-1,2,3-triazol-1-yl)propoxy)phenyl)-3-(thiophen-2-yl)prop-2-en-1-one] | > 100 µM | –
6 | 14.8 ± 0.72 µM | 144 to 146 °C | 6.24 ± 0.05 µM | O=C(/C=C/c1cccnc1)c1ccc(OCCCn2cc(CSc3nc4ccccc4s3)nn2)cc1 [Compound I-18, (E)-1-(4-(3-(4-((Benzo[d]thiazol-2-ylthio)methyl)-1H-1,2,3-triazol-1-yl)propoxy)phenyl)-3-(pyridin-3-yl)prop-2-en-1-one] | 24.6 ± 3.8 µM | –
7 | 28.4 ± 1.59 µM | 149 to 150 °C | 50.1 ± 0.97 µM | Cn1nnnc1SCc1cn(CCCOc2ccc(C(=O)/C=C/c3ccc(Cl)cc3)cc2)nn1 [Compound I-24, (E)-3-(4-Chlorophenyl)-1-(4-(3-(4-(((1-methyl-1H-tetrazol-5-yl)thio)methyl)-1H-1,2,3-triazol-1-yl)propoxy)phenyl)prop-2-en-1-one] | 24.9 ± 1.09 µM | –
8 | – | – | – | O=C(/C=C/c1ccccc1)c1ccccc1 [Compound 1] | – | IC50 MCF-7 (MCF-7): 6.88 µg/mL (≈ 33 µM)
9 | – | – | – | O=C(NCc1cn(Cc2cccc(Oc3ccccc3)c2)nn1)c1ccccn1 [Compound 4] | – | IC50 (MCF-7): 0.046 µM
10 | 6.98 ± 0.4 µM | 105 to 107 °C | 5.66 ± 0.55 µM | COc1cc(/C=C/C(=O)c2ccc(OCCCn3cc(CSc4nnnn4C)nn3)cc2)cc(OC)c1OC [Compound I-25, (E)-1-(4-(3-(4-(((1-Methyl-1H-tetrazol-5-yl)thio)methyl)-1H-1,2,3-triazol-1-yl)propoxy)phenyl)-3-(3,4,5-trimethoxyphenyl)prop-2-en-1-one] | 5.28 ± 0.56 µM | –
11 | 21 ± 1.81 µM | – | 15.1 ± 0.85 µM | O=C(/C=C/c1cccs1)c1ccc(OCCCn2cc(CSc3nncs3)nn2)cc1 [Compound I-23, (E)-1-(4-(3-(4-(((1,3,4-Thiadiazol-2-yl)thio)methyl)-1H-1,2,3-triazol-1-yl)propoxy)phenyl)-3-(thiophen-2-yl)prop-2-en-1-one] | 57.2 ± 1.63 µM | –
12 | – | – | – | (E)-1-(4-(3-(4-(((1,3,4-Thiadiazol-2-yl)thio)methyl)-1H-1,2,3-triazol-1-yl)propoxy)phenyl)-3-(3,4,5-trimethoxyphenyl)prop-2-en-1-one [Compound I-21] | – | IC50 [1]: 1.52 to 10.4 µM; IC50 (SK-N-SH): 1.52 ± 0.3 µM; level of Bax [2]: increased the level of Bax; level of Bcl-2 [2]: reduced the level of Bcl-2; selectivity between cancer and normal cells (GES-1): good selectivity; IC50 (GES-1): 43.7 ± 1.35 µM; IC50 (MGC-803; 72 h exposure): 4.26 ± 0.32 µM; apoptotic morphological changes (Hoechst 33258 staining) (SK-N-SH cells): characteristic apoptotic morphological changes; IC50 (EC-109; 72 h exposure): 10.4 ± 0.24 µM
13 | 5.87 ± 1.05 µM | 169 to 171 °C | 8.52 ± 0.56 µM | COc1cc(/C=C/C(=O)c2ccc(OCCCn3cc(CSC4=NCCS4)nn3)cc2)cc(OC)c1OC [Compound I-14, (E)-1-(4-(3-(4-(((4,5-Dihydrothiazol-2-yl)thio)methyl)-1H-1,2,3-triazol-1-yl)propoxy)phenyl)-3-(3,4,5-trimethoxyphenyl)prop-2-en-1-one] | 3.57 ± 0.22 µM | IC50 ([1]; Homo sapiens): 3.57 to 8.52 µM; IC50 (GES-1; GES1): > 64 µM; selectivity between cancer and normal cells (GES-1): good selectivity
14 | > 100 µM | 172 to 174 °C | 38.2 ± 0.58 µM | O=C(/C=C/c1ccc(Cl)cc1)c1ccc(OCCCn2cc(CSc3nc4ccccc4s3)nn2)cc1 [Compound I-17] | 9.54 ± 0.05 µM | –
15 | 19.3 ± 0.47 µM | 151 to 153 °C | 37.2 ± 0.85 µM | O=C(/C=C/c1ccc(Cl)cc1)c1ccc(OCCCn2cc(CSC3=NCCS3)nn2)cc1 [Compound I-13, (E)-3-(4-Chlorophenyl)-1-(4-(3-(4-(((4,5-dihydrothiazol-2-yl)thio)methyl)-1H-1,2,3-triazol-1-yl)propoxy)phenyl)prop-2-en-1-one] | > 100 µM | –
16 | 3.75 ± 1.21 µM | 143 to 145 °C | 46.3 ± 1.64 µM | O=C(/C=C/c1ccc(Cl)cc1)c1ccc(OCCCn2cc(CSc3nncs3)nn2)cc1 [Compound I-20, (E)-1-(4-(3-(4-(((1,3,4-Thiadiazol-2-yl)thio)methyl)-1H-1,2,3-triazol-1-yl)propoxy)phenyl)-3-(4-chlorophenyl)prop-2-en-1-one] | 5.81 ± 0.21 µM | –
17 | – | – | – | COc1ccc(C(=O)/C=C/c2cc(OC)c(OC)c(OC)c2)cc1OC [Compound 2] | – | IC50 (K562 cells): 1.1 µM
18 | 4.49 ± 0.45 µM | 151 to 153 °C | 5.56 ± 0.45 µM | Cn1nnnc1SCc1cn(CCCOc2ccc(C(=O)/C=C/c3cccnc3)cc2)nn1 [Compound I-26, (E)-1-(4-(3-(4-(((1-Methyl-1H-tetrazol-5-yl)thio)methyl)-1H-1,2,3-triazol-1-yl)propoxy)phenyl)-3-(pyridin-3-yl)prop-2-en-1-one] | 11.8 ± 0.74 µM | –
19 | 12.4 ± 0.44 µM | 146 to 149 °C | 4.45 ± 0.82 µM | O=C(/C=C/c1cccnc1)c1ccc(OCCCn2cc(CSc3nncs3)nn2)cc1 [Compound I-22, (E)-1-(4-(3-(4-(((1,3,4-Thiadiazol-2-yl)thio)methyl)-1H-1,2,3-triazol-1-yl)propoxy)phenyl)-3-(pyridin-3-yl)prop-2-en-1-one] | 14.6 ± 1.21 µM | –
20 | 9.85 ± 0.76 µM | – | 7.14 ± 0.28 µM | O=c1[nH]cc(F)c(=O)[nH]1 [Compound 5-FU, 5-fluorouracil, reference compound] | 10.3 ± 0.32 µM | –
